{"source": "patent US20060293241A1", "about": "“Pharmaceutical composition comprising a factor VII polypeptide and epsilon-aminocaproic acid” (Novo Nordisk HealthCare A/G, priority 2001, published 2006)", "key": {"[1]": {"tested_on": "Normal human plasma diluted 10-fold", "assay": "Clot lysis assay (Example 1), turbidity at 650 nm", "assay_type": "biochemical", "conditions": "in the presence of 10 nM FVIIa; t-PA 8 nM", "method": "Clot lysis assay: Normal human plasma diluted 10-fold with buffer (20 mM HEPES, 150 mM NaCl, 5 mM CaCl, pH 7.4) containing Innovin (Dade Behring, 2000-fold dilution), rFVIIa (Novo Nordisk A/S Bagsvaerd, Denmark, various concentrations) and t-PA (American Diagnostica, 8 nM) was added to 96-well ELISA plates and turbidity at 650 nm was measured over time at room temperature. Where indicated, epsilon-Aminocaproic Acid (Sigma, various concentrations) was included."}, "[2]": {"tested_on": "Normal human plasma (NHP)", "assay": "Clot lysis assay (Example 2), clot survival in NHP and NHP diluted 1:2 with plasma expander", "assay_type": "biochemical", "conditions": "in combination with 40 nM FVIIa", "method": "Clot lysis assay: Normal human plasma (NHP) and NHP diluted 1:2 with plasma expander Macrodex or HES 200/0.5 used clinically for maintaining blood pressure under surgical procedures was mixed with lipidated recombinant TF (Innovin 1:60,000), CaCl2 10 mM, +/−FVIIa 40 nM, phosfatidylcolin/phosphateidylserine vesicles 6 μM, tPA […] and +/−the indicated doses of e-aminocaproic acid (EACA). Clot survival was measured as the time for clot start until the time for clot lysis."}}, "data": [{"smiles": "NCCCCCC(=O)O", "note": "[EACA, epsilon-aminocaproic acid]", "values": [{"measurement": "effect on clot lysis time", "setting": "[1]", "result": "further prolongation of the clot lysis time"}, {"measurement": "epsilon-Aminocaproic Acid concentration at which effect on clot lysis time was optimal", "setting": "[1]", "result": 1, "unit": "µM"}, {"measurement": "effect on clot survival time", "setting": "[2]", "result": "increase in clot survival time"}]}]}
